Data: patent US7135480B2, “Substituted 1-benzoyl-3-cyano-pyrrolo [1,2-a] quinolines and analogs as activators of caspases and inducers of apoptosis” (Cytovia, Inc., priority 2002, dated 2006)
Where two headings read alike, the source gives them in different places.

Legend:
T-47D [1] = experiment: Caspase cascade activation assay (N-(Ac-DEVD)-N'-ethoxycarbonyl-R110 fluorogenic substrate) in T-47D cells; format: cell-based, Human; settings: for EC50: read-out: Caspase potency EC50; for Caspase activity (Ratio): ratio of net RFU of compound to control, 0.16 to 10 μM final
Procedure: (§1) Human breast cancer cell lines T-47D and ZR-75-1 were grown according to media component mixtures designated by American Type Culture Collection +10% FCS (Invitrogen Corporation), in a 5% CO2–95% humidity incubator at 37° C. T-47D and ZR-75-1 cells were maintained at a cell density between 30 and 80% confluency and for HL-60 at a cell density of 0.1 to 0.6×10^6 cells/mL. Cells were harvested at 600×g and resuspended at 0.65×10^6 cells/mL into appropriate media +10% FCS. An aliquot of 45 μL of cells was added to a well of a 96-well microtiter plate containing 5 μL of a 10% DMSO in RPMI-1640 media solution containing 1.6 to 100 μM of 1-benzoyl-3-cyano-pyrrolo[1,2-a]quinoline or other test compound (0.16 to 10 μM final). An aliquot of 45 μL of cells was added to a well of a 96-well microtiter plate containing 5 μL of a 10% DMSO in RPMI-1640 media solution without test compound as the control sample. The samples were mixed by agitation and then incubated at 37° C. for 24 h in a 5% CO2–95% humidity incubator. After incubation, the samples were removed from the incubator and 50 μL of a solution containing 20 μM of N-(Ac-DEVD)-N′-ethoxycarbonyl-R110 fluorogenic substrate (SEQ ID NO:1) (Cytovia, Inc.; U.S. Pat. No. 6,335,429), 20% sucrose (Sigma), 20 mM DTT (Sigma), 200 mM NaCl (Sigma), 40 mM Na PIPES buffer pH 7.2 (Sigma), and 500 μg/mL lysolecithin (Calbiochem) was added. The samples were mixed by agitation and incubated at room temperature. Using a fluorescent plate reader (Model 1420 Wallac Instruments), an initial reading (T=0) was made approximately 1–2 min after addition of the substrate solution, employing excitation at 485 nm and emission at 530 nm, to determine the background fluorescence of the control sample. After approximately 3 h of incubation, the samples were read for fluorescence as above (T=3 h).
(§2) The Relative Fluorescence Unit values (RFU) were used to calculate the sample readings as follows: RFU(T=3h)−Control RFU(T=0)=Net RFU(T=3h)
(§3) The activity of caspase cascade activation was determined by the ratio of the net RFU value for 1-benzoyl-3-cyano-pyrrolo[1,2-a]quinoline to that of control samples. The EC50 (nM) was determined by a sigmoidal dose-response calculation (Prism 2.0, GraphPad Software Inc.).

ZR-75-1 = experiment: Caspase cascade activation assay (N-(Ac-DEVD)-N'-ethoxycarbonyl-R110 fluorogenic substrate) in ZR-75-1 cells; format: cell-based, Human; settings: for EC50: read-out: Caspase potency EC50; for Caspase activity (Ratio): ratio of net RFU of compound to control, 0.16 to 10 μM final
Procedure: as §1, §2, §3

T-47D [2] = experiment: Inhibition of cell proliferation (GI50, CellTiter 96 AQueous One Solution) in T-47D cells; format: cell-based, Human; settings: read-out: GI50 (dose for 50% inhibition of cell proliferation)
Procedure: (§4) T-47D and SKBr-3 cells were grown and harvested as in Example 84. An aliquot of 90 μL of cells (2.2×10^4 cells/mL) was added to a well of a 96-well microtiter plate containing 10 μl of a 10% DMSO in RPMI-1640 media solution containing 1 nM to 100 μM of 1-benzoyl-3-cyano-pyrrolo[1,2-a]quinoline (0.1 nM to 10 μM final). An aliquot of 90 μL of cells was added to a well of a 96-well microtiter plate containing 10 μL of a 10% DMSO in RPMI-1640 media solution without compound as the control sample for maximal cell proliferation (AMax). The samples were mixed by agitation and then incubated at 37° C. for 48 h in a 5% CO2–95% humidity incubator. After incubation, the samples were removed from the incubator and 20 μL of CellTiter 96 AQUEOUS One Solution Cell Proliferation™ reagent (Promega) was added. The samples were mixed by agitation and incubated at 37° C. for 2–4 h in a 5% CO2–95% humidity incubator. Using an absorbance plate reader (Model 1420 Wallac Instruments), an initial reading (T=0) was made approximately 1–2 min after addition of the solution, employing absorbance at 490 nm. This determines the possible background absorbance of the test compounds. No absorbance for 1-benzoyl-3-cyano-pyrrolo[1,2-a]quinoline was found at 490 nm. After the 2–4 h incubation, the samples were read for absorbance as above (ATest).
(§5) Baseline for GI50 (dose for 50% inhibition of cell proliferation) of initial cell numbers were determined by adding an aliquot of 90 μL of cells or 90 μL of media, respectively, to wells of a 96-well microtiter plate containing 10 μL of a 10% DMSO in RPMI-1640 media solution. The samples were mixed by agitation and then incubated at 37° C. for 0.5 h in a 5% CO2–95% humidity incubator. After incubation, the samples were removed from the incubator and 20 μL of CellTiter 96 AQUEOUS One Solution Cell Proliferation ™ reagent (Promega) was added. The samples were mixed by agitation and incubated at 37° C. for 2–4 h in a 5% CO2–95% humidity incubator. Absorbance was read as above, (AStart) defining absorbance for initial cell number used as baseline in GI50 determinations. […]

SKBr-3 = experiment: Inhibition of cell proliferation (GI50, CellTiter 96 AQueous One Solution) in SKBr-3 cells; format: cell-based; settings: read-out: GI50 (dose for 50% inhibition of cell proliferation)
Procedure: as §4, §5

[3] = Homo sapiens, T47D, T-47D, 24 h incubation, sigmoidal dose-response
[4] = Homo sapiens, ZR-75-1, 24 h incubation, sigmoidal dose-response

EC50 (T-47D [1]; [3]) | EC50 (ZR-75-1; [4]) | SMILES | Caspase activity (Ratio) (T-47D [1]; T-47D, 24 h incubation) | Caspase activity (Ratio) (ZR-75-1; ZR-75-1, 24 h incubation) | further results
2.41 µM | 1.4 µM | Cc1ccc(C(=O)c2cc(C#N)c3ccc4ccccc4n23)cc1 [Example 6, 3-Cyano-1-(4-methyl-benzoyl)-pyrrolo[1,2-a]quinoline] | 12 | 14 | –
> 10 µM | 5.64 µM | Cc1ccc2c(ccc3c(C#N)cc(C(=O)c4ccccc4)n32)c1 [Example 13, 1-Benzoyl-3-cyano-7-methyl-pyrrolo[1,2-a]quinoline] | 1 | 2 | –
> 10 µM | > 10 µM | N#Cc1cc(C(=O)c2ccccc2)n2ccccc12 [Example 3, 3-Benzoyl-1-cyano-indolizine] | 1 | 1 | –
– | – | COc1cccc(C(=O)c2cc(C#N)c3ccc4ccccc4n23)c1 [Example 4, 3-Cyano-1-(3-methoxy-benzoyl)-pyrrollo[1,2-a]quinoline] | 12 | 10 | EC50 (T-47D [1]; T-47D, 24 h incubation, sigmoidal dose-response): 0.463 µM; EC50 (ZR-75-1; ZR-75-1, 24 h incubation, sigmoidal dose-response): 0.624 µM; GI50 (T-47D [2]; T-47D, 48 h incubation): 0.138 µM; GI50 (SKBr-3; SKBR-3, 48 h incubation): 0.093 µM
0.351 µM | 0.185 µM | COc1ccc(C(=O)c2cc(C#N)c3ccc4ccccc4n23)cc1 [Example 7, 3-Cyano-1-(4-methoxy-benzoyl)-pyrrolo[1,2-a]quinoline] | 13 | 17 | –
2.19 µM | 1.26 µM | N#Cc1cc(C(=O)c2ccc([N+](=O)[O-])cc2)n2c1ccc1ccccc12 [Example 10, 3-Cyano-1-(4-nitro-benzoyl)-pyrrolo[1,2-a]quinoline] | 6 | 14 | –
> 10 µM | 5.3 µM | N#Cc1cc(C(=O)c2ccccc2)n2c3c(ccc12)CCCC3 [Example 2, 1-Benzoyl-3-cyano-6,7,8,9-tetrahydro-pyrrolo[1,2-a]quinoline] | 1 | 2 | –
– | – | N#Cc1cc(C(=O)c2ccccc2)n2c1ccc1ccccc12 [Example A, 1-benzoyl-3-cyano-pyrrolo[1,2-a]quinoline] | 7 | 10 | EC50 (T-47D [1]; Homo sapiens, T47D, 24 h): 0.242 µM; EC50 (ZR-75-1; Homo sapiens, ZR-75-1, 24 h): 0.243 µM; GI50 (T-47D [2]; Homo sapiens, T47D, 48 h): 0.03 µM; GI50 (SKBr-3; Homo sapiens, SK-BR-3, 48 h): 0.032 µM
0.157 µM | 0.133 µM | N#Cc1cc(C(=O)c2ccc(N3CCCC3)cc2)n2c1ccc1ccccc12 [Example 1, 3-Cyano-1-(4-pyrrolidin-1-yl-benzoyl)-pyrrolo[1,2-a]quinoline] | 10 | 7 | GI50 (T-47D [2]; Homo sapiens, T47D, T-47D, 48 h incubation): 0.036 µM; GI50 (SKBr-3; Homo sapiens, SK-BR-3, SKBR-3, 48 h incubation): 0.042 µM
– | 0.159 µM | N#Cc1cc(C(=O)c2cccc(Br)c2)n2c1ccc1ccccc12 [Example 5, 1-(3-Bromo-benzoyl)-3-cyano-pyrrolo[1,2-a]quinoline] | – | 11 | –
0.15 µM | 0.15 µM | N#Cc1cc(C(=O)c2ccc(F)cc2)n2c1ccc1ccccc12 [Example 9, 3-Cyano-1-(4-fluoro-benzoyl)-pyrrolo[1,2-a]quinoline] | 12 | 12 | –
0.148 µM | 0.147 µM | N#Cc1cc(C(=O)c2ccc(N)cc2)n2c1ccc1ccccc12 [Example 11, 1-(4-Amino-benzoyl)-3-cyano-pyrrolo[1,2-a]quinoline] | 17 | 15 | –
1.16 µM | 0.493 µM | Cc1cc2c(C#N)cc(C(=O)c3ccccc3)n2c2ccccc12 [Example 12, 1-Benzoyl-3-cyano-5-methyl-pyrrolo[1,2-a]quinoline] | 14 | 13 | –
0.587 µM | 2.58 µM | N#Cc1cc(C(=O)c2ccc(Cl)cc2)n2c1ccc1ccccc12 [Example 8, 1-(4-Chloro-benzoyl)-3-cyano-pyrrolo[1,2-a]quinoline] | 12 | 11 | –
